Consider seven molecules from patent US20240383924A1, “BENZOPYRIMIDINE COMPOUNDS AND USE THEREOF” (priority 2022, published 2024).

pIC50: −log10 of the molar value. Where a name gives a salt, the structure may show the parent alone. Read-outs that look alike come from different tables or passages of the source.

Data set [1] can be described thus: Pharmacokinetic study in vivo in mice. The note with it: mouse, plasma, male C57BL/6J mice; for AUC(0-t): read-out: area under plasma concentration-time curve AUC0-last. Here is the method:
Male C57BL/6J mice aged 7 to 10 weeks were selected, and administered candidate compound solutions intravenously or orally. Whole blood was collected for a certain period of time. Plasma was prepared. Drug concentration was analyzed by LC-MS/MS method. Pharmacokinetic parameters were calculated using Certara WinNonlin software (Certara Company, USA).

The target in data set [2] is T1, KRAS^G12D (Homo sapiens (Human), UniProt P01116, G12D). As to the kind of experiment: SOS1-mediated binding of KRAS^G12D to effector protein c-Raf (TR-FRET). Type of data set: biochemical. The note with it: KRAS G12D/c-Raf/SOS1/GTP, read-out: IC50 Values of Compounds for KRAS^G12D Activity. Here is the method:
Assay example 1: Assay of SOS1-mediated binding ability of KRAS^G12D to effector protein c-Raf
2. Assay steps 2.1 Preparation of 1×enzymatic reaction buffer:
2.2 Preparation of KRAS G12D enzyme (2×):
2.3 Preparation of substrate and antibody mixture (2×):
1) The compounds were serially diluted 5-fold with DMSO in a dilution plate to a final starting concentration of 10 μM.
2) The compounds were transferred with Echo to a 384 reaction plate with […] per well.
3) 5 μL of KRAS G12D enzyme was added to each well of the reaction plate.
4) The plates were sealed with a sealing film and centrifuged at 1000 g for 30 seconds, and then incubated at room temperature for 15 minutes.
5) 2× cRaf/SOS1/GTP/MAb Anti 6HIS-d2/MAb Anti GST-Eu mixture was prepared with 1× enzyme reaction buffer, and 5 μL of the mixture was added to the reaction plate.
6) The mixture was centrifuged at 1000g for 30 seconds and reacted at room temperature for 2 hours.
7) The fluorescence signals at 615 nm (Cryptate) and 665 nm (XL665) were read with a BMG microplate reader.
8) Data analysis was performed using Graphpad 7.0 software to give IC50.
A general note: TR-FRET usually uses a lanthanide donor and a delayed reading to cut background.

Data set [3] has as its system phospho-ERK in GP2D cells. The experiment in a line: Inhibition of phospho-ERK in GP2D cells (Odyssey in-cell imaging). In kind it is cell-based. The conditions noted are these: Homo sapiens, 1 hour compound, EGF stimulation, read-out: Inhibitory effects on intracellular phospho-ERK IC50. Here is the method:
Assay example 3. Inhibitory effect of compounds on phospho-ERK in GP2D cells
In this assay, the inhibitory effect of the assayed compounds on the phosphorylation of ERK protein downstream of the KRAS […] signaling pathway in human colon cancer GP2D cells was analyzed.
2. Reagents, consumables and instruments
3.Assay process 1. Cell culture
1) GP2D cells were cultured in a cell culture 75 flask at 37° C., 5% CO2, and the medium was DMEM medium (added with 10% FBS and 1% P/S).
2) After cultivation for 2 days, the medium was removed and the sterile PBS buffer was used to wash once.
3) 3 mL of trypsin was added and the cells were digested in a 37° C. incubator for 2 to 3 minutes until cells fell off.
4) 9 mL of fresh culture medium was added to neutralize the digestion; the cells were aspirated into a centrifuge tube and centrifuged at 1000 rpm at room temperature for 5 minutes.
5) The supernatant was removed, and 3 mL of fresh culture medium was added to resuspend the cells; the cells were counted by a cell counter.
1) 7000 cells per well were plated in a 384-cell culture plate with 40 μL of culture medium, and cultured overnight in a 37° C. and 5% CO2 incubator.
2) The Echo655 instrument was used to add 40 nL of serially diluted compounds (the initial concentration of the compound was 1000 nM, and the compound was serially diluted 3-fold. […]

Data set [4] has as its system KRAS^G12D mutated AsPC-1 cells. The experiment in a line: Anti-cell proliferation in tumor cell line AsPC-1 (CellTiter-Glo 3D). Type of data set: cell-based. The note with it: Homo sapiens, ASPC1; AsPC-1, 120 hours, 3D culture; read-out: Anti-proliferation Activity against KRAS^G12D Mutated AsPC-1 Cells IC50. The source says:
Assay example 2. Anti-cell proliferation effects of compounds in tumor cell line AsPC-1 1. Research purpose
In this assay, the inhibitory effects of compounds on cell proliferation were studied by detecting the effects of compounds on the in vitro cell activity in the tumor cell line AsPC-1.
Ultra Low Cluster-96 well plate (Corning-7007)
Greiner CELLSTAR 96-well plate (#655090)
Promega CellTiter-Glo 3D Luminescence Cell Viability Detection Kit (Promega-G9683)
2104-10 En Vision Plate Reader, PerkinElmer
RPMI 1640, DMEM, PBS (phosphate buffered solution), FBS (fetal bovine serum), Antibiotic-antimycotic, L-glutamine, DMSO (dimethyl sulfoxide)
3. Assay methods and steps Cell culture
The tumor cell line was cultured in a 37° C., 5% CO2 incubator according to the culture conditions indicated in the culture method. […]
Cells were stained with trypan blue and viable cells were counted. […]
CellTiter-Glo luminescence assay for cell viability detection (day 5)
The following steps were performed according to the instructions of the Promega CellTiter-Glo 3D Luminescence Cell Viability Dectection Kit (Promega #G9683). […]
The solution in the ULA culture plate was then transferred to a black bottom culture plate (#655090) and left at room temperature for 25 minutes to stabilize the luminescence signal.
Luminescence signals were detected with a 2104 EnVision plate reader. […]
For orientation: Cellular ATP, detected with luciferase, serves as a proxy for viable cell number.

Data set [5] has as its target T1, KRAS^G12D. As to the kind of experiment: Activity of inhibiting KRAS^G12D: binding of KRAS to GTP (TR-FRET, SOS/GTP exchange). The note with it: Bodipy GDP/SOS/GTP. In kind it is biochemical.

T1 sequence (P01116-2 other isoform, or with tags, fused parts or gaps G12D): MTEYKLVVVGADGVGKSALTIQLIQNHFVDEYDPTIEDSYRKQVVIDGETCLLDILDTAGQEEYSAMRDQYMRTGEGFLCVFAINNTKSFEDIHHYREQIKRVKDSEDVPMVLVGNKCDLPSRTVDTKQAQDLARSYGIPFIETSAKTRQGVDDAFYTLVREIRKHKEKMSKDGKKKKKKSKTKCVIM

For orientation: clearance means a measure of how efficiently the substance is removed, as volume per time. The bioavailability is dose-corrected exposure relative to a reference, in per cent. As a reminder, the Tmax is the time at which the peak concentration occurs. With `C#Cc1c(F)ccc2cc(N)cc(-c3c(F)cc4c(N5CC6C=CC(C5)N6)nc(OC[C@@]56CCCN5C[C@H](F)C6)nc4c3F)c12` [Compound 002A], the Vd in data set [1] (intravenous administration, dose 1.74-1.94 mg/kg, read-out: apparent volume of distribution Vdss) was 56.3 L/kg. The AUC(0-t) in data set [1] (intravenous administration, dose 1.74-1.94 mg/kg) is 0.267 µM·h; in data set [1] (oral administration, dose 28.2-51.0 mg/kg) it was 0.637 µM·h. Further, the clearance in data set [1] (intravenous administration, dose 1.74-1.94 mg/kg, read-out: clearance rate CL) is 189 mL/min/kg. Also, the half-life in data set [1] (intravenous administration, dose 1.74-1.94 mg/kg, read-out: half-life T1/2 (converted)) was 427 min. The bioavailability in data set [1] (oral administration, dose 28.2-51.0 mg/kg, read-out: bioavailability F) worked out at 16.1%. Besides, the Cmax in data set [1] (oral administration, dose 28.2-51.0 mg/kg, read-out: peak concentration Cmax) was found to be 345 nM. The Tmax in data set [1] (oral administration, dose 28.2-51.0 mg/kg, read-out: peak time Tmax) is 1.13 h. In addition, the pIC50 is 7.63 at KRAS^G12D [2], 9.82 in data set [3] and 7.75 in data set [4].

Consider `C#Cc1c(F)ccc2cc(N)cc(-c3cc(OC)c4c(N5CC6C=CC(C5)N6)nc(OC[C@@]56CCCN5C[C@H](F)C6)nc4c3F)c12` [Compound 006], for which the pIC50 on KRAS^G12D [2] is 7.43.

Turning to `C#Cc1c(F)ccc2cc(O)cc(-c3ccc4c(N5CC6C=CC(C5)N6)nc(OC[C@@]56CCCN5C[C@H](F)C6)nc4c3F)c12` [Compound 005], on KRAS^G12D [2], the pIC50 is 7.91.

For the molecule `C#Cc1c(F)ccc2cc(N)cc(-c3c(Cl)cc4c(N5CC6C=CC(C5)N6)nc(OC[C@@]56CCCN5C[C@H](F)C6)nc4c3F)c12` [Compound 001B], the pIC50 on KRAS^G12D [2] was 7.72.

For `C#Cc1c(F)ccc2cc(N)cc(-c3ccc4c(N5CC6C=CC(C5)N6)nc(OC[C@@]56CCCN5C[C@H](F)C6)nc4c3F)c12` [Compound 003], the pIC50 on KRAS^G12D [2] was 7.69.

`Oc1cc(-c2c(Cl)cc3c(N4C5CCC4CNC5)nc(OC[C@@]45CCCN4C[C@H](F)C5)nc3c2F)c2ccccc2c1` [Compound 029 hydrochloride] gave a pIC50 at KRAS^G12D [5] of 7.41.

`C#Cc1c(F)ccc2cc(N)cc(-c3c(F)cc4c(N5CC6C=CC(C5)N6)nc(OC[C@]56CCCN5CC(=C)C6)nc4c3F)c12` [Compound 016B]: the pIC50 in data set [4] was 7.85.
